{"source": "patent US20080200467A1", "about": "“SOLUBLE EPOXIDE HYDROLASE INHIBITORS” (Arete Therapeutics, Inc., priority 2006, published 2008)"}
{"system": "soluble epoxide hydrolase (sEH)", "test": "Fluorescent Assay for Mouse and Human Soluble Epoxide Hydrolase (CMNPC substrate)", "format": "biochemical", "conditions": "Concentration 50 nM", "source_text": "(§1) Fluorescent Assay for Mouse and Human Soluble Epoxide Hydrolase Recombinant mouse sEH (MsEH) and human sEH (HsEH) were produced in a baculovirus expression system as previously reported. Grant et al., J. Biol. Chem., 268:17628-17633 (1993); Beetham et al., Arch. Biochem. Biophys., 305:197-201 (1993). The expressed proteins were purified from cell lysate by affinity chromatography. Wixtrom et al., Anal. Biochem., 169:71-80 (1988). Protein concentration was quantified using the Pierce BCA assay using bovine serum albumin as the calibrating standard. The preparations were at least 97% pure as judged by SDS-PAGE and scanning densitometry. They contained no detectable esterase or glutathione transferase activity which can interfere with the assay. The assay was also evaluated with similar results in crude cell lysates or homogenate of tissues. The IC50s for each inhibitor were according to the following procedure: [drawing 218] […] Jones P. D. et. al.; Analytical Biochemistry 2005; 343: pp. 66-75) Bis/Tris HCl 25 mM pH 7.0 containing 0.1 mg/mL of BSA (buffer […] at 0.25 mM in DMSO. Mother solution of enzyme in buffer A (Mouse sEH at 6 μg/mL and Human sEH at 5 μg/mL). Inhibitor dissolved in DMSO at the appropriate concentration. In a black 96 well plate, fill all the wells with 150 μL of buffer A. Add 2 μL of DMSO in well A2 and A3, and then add 2 μL of inhibitor solution in A1 and A4 through A12. Add 150 μL of buffer A in row A, then mix several time and transfer 150 μL to row B. Repeat this operation up to row H. The 150 μL removed from row H is discarded. Add 20 μL of buffer A in column 1 and 2, then add 20 μL of enzyme solution to column 3 to 12. Incubate the plate for 5 minutes in the plate reader at 30° C. During incubation prepare the working solution of substrate by mixing 3.68 mL of buffer A (4×0.920 mL) with 266 μL (2×133 μL) of substrate solution). At t=0, add 30 μL of working substrate solution with multi-channel pipette labeled “Briggs 303” and start the reading ([S]final: 5 μM). Read with ex: 330 nm (20 nm) and em: 465 nm (20 nm) every 30 second for 10 minutes. The velocities are used to analyze and calculate the IC50s. Tables 4-6 show the activity of compounds when tested with the assay at 50, 500, 5000, 50000, and 500000 nM.", "units": {"% Inhibition": "%"}}
{"smiles": "O=C(NC1CCN(S(=O)(=O)c2ccc(Cl)cc2)CC1)C(O)C12CC3CC(CC(C3)C1)C2", "note": "(stereo not shown) [Compound 149, N-(1-(4-Chlorophenylsulfonyl)piperidin-4-yl)-2-adamantan-1-yl-2-hydroxyacetamide]", "% Inhibition": 95}
{"system": "soluble epoxide hydrolase (sEH)", "test": "Fluorescent Assay for Mouse and Human Soluble Epoxide Hydrolase (CMNPC substrate)", "format": "biochemical", "conditions": "Concentration 500 nM", "source_text": "as §1", "units": {"% Inhibition": "%"}}
{"smiles": "Cc1ccc(S(=O)(=O)N2CCC(CNC(=O)C(O)CC34CC5CC(CC(C5)C3)C4)CC2)cc1", "note": "(stereo not shown) [Compound 122, 3-Adamantan-1-yl-2-hydroxy-N-[1-(toluene-4-sulfonyl)-piperidin-4-ylmethyl]-propionamide]", "% Inhibition": 88}
{"smiles": "COC(=O)CCCCCCCCCCCNC(=O)C(O)c1ccc(C(F)(F)F)cc1", "note": "(stereo not shown) [Compound 158, Methyl 12-(2-hydroxy-2-(4-(trifluoromethyl)phenyl)acetamido)dodecanoate]", "% Inhibition": 72}
{"smiles": "O=C(NC1CCN(S(=O)(=O)c2cccc(C(F)(F)F)c2)CC1)C(O)CC12CC3CC(CC(C3)C1)C2", "note": "(stereo not shown) [Compound 133, 3-Adamantan-1-yl-2-hydroxy-N-(1-(3-(trifluoromethyl)phenylsulfonyl)piperidin-4-yl)propanamide]", "% Inhibition": 83}
{"smiles": "Cc1ccc(S(=O)(=O)N2CCC(NC(=O)C(O)CC34CC5CC(CC(C5)C3)C4)CC2)cc1", "note": "(stereo not shown) [Compound 128, 3-Adamantan-1-yl-2-hydroxy-N-[1-(toluene-4-sulfonyl)-piperidin-4-yl]-propionamide]", "% Inhibition": 89}
{"smiles": "O=C(Nc1cccc(OCc2ccccc2)c1)C(O)CC12CC3CC(CC(C3)C1)C2", "note": "(stereo not shown) [Compound 115, 3-Adamantan-1-yl-N-(3-benzyloxy-phenyl)-2-hydroxy-propionamide]", "% Inhibition": 89}
{"smiles": "Cc1ccc(S(=O)(=O)N2CCC(NC(=O)C(O)CCC3CCCCC3)CC2)cc1", "note": "(stereo not shown) [Compound 140, 4-Cyclohexyl-2-hydroxy-N-(1-tosylpiperidin-4-yl)butanamide]", "% Inhibition": 78}
{"smiles": "COC(=O)CCCCCCCCCCCNC(=O)C(O)CC12CC3CC(CC(C3)C1)C2", "note": "(stereo not shown) [Compound 160, Methyl 12-(3-adamantan-1-yl-2-hydroxypropanamido)dodecanoate]", "% Inhibition": 81}
{"smiles": "Cc1ccc(S(=O)(=O)N2CCC(NC(=O)C(O)C34CC5CC(CC(C5)C3)C4)CC2)cc1", "note": "(stereo not shown) [Compound 124, 2-Adamantan-1-yl-2-hydroxy-N-[1-(toluene-4-sulfonyl)-piperidin-4-yl]-acetamide]", "% Inhibition": 80}
{"smiles": "Cc1ccc(S(=O)(=O)N2CCC(NC(=O)C(O)CCC34CC5CC(CC(C5)C3)C4)CC2)cc1", "note": "(stereo not shown) [Compound 138, 4-Adamantan-1-yl-2-hydroxy-N-(1-tosylpiperidin-4-yl)butanamide]", "% Inhibition": 79}
{"system": "soluble epoxide hydrolase (sEH)", "test": "Fluorescent Assay for Mouse and Human Soluble Epoxide Hydrolase (CMNPC substrate)", "format": "biochemical", "conditions": "Concentration 5000 nM", "source_text": "as §1", "units": {"% Inhibition": "%"}}
{"smiles": "Cc1ccc(S(=O)(=O)N2CCC(NC(=O)C(=O)C34CC5CC(CC(C5)C3)C4)CC2)cc1", "note": "[Compound 18, 2-Adamantan-1-yl-2-oxo-N-[1-(toluene-4-sulfonyl)-piperidin-4-yl]-acetamide]", "% Inhibition": 93}
{"smiles": "O=C(NC1CCN(S(=O)(=O)c2ccc(Cl)cc2)CC1)C(O)CCC12CC3CC(CC(C3)C1)C2", "note": "(stereo not shown) [Compound 152, N-(1-(4-Chlorophenylsulfonyl)piperidin-4-yl)-4-adamantyl-2-hydroxybutanamide]", "% Inhibition": 98}
{"smiles": "Cc1ccc(S(=O)(=O)N2CCC(NC(=O)C(O)CC3CCCCC3)CC2)cc1", "note": "(stereo not shown) [Compound 135, 3-Cyclohexyl-2-hydroxy-N-(1-tosylpiperidin-4-yl)propanamide]", "% Inhibition": 89}
{"smiles": "O=C(NC1CCN(S(=O)(=O)c2cccc(C(F)(F)F)c2)CC1)C(O)C12CC3CC(CC(C3)C1)C2", "note": "(stereo not shown) [Compound 123, 2-Adamantan-1-yl-2-hydroxy-N-[1-(3-trifluoromethyl-benzenesulfonyl)-piperidin-4-yl]-acetamide]", "% Inhibition": 98}
{"smiles": "O=C(Cc1ccc(OCc2ccccc2)cc1)C(=O)NC12CC3CC(CC(C3)C1)C2", "note": "[Compound 7, N-Adamantan-1-yl-3-(4-benzyloxy-phenyl)-2-oxo-propionamide]", "% Inhibition": 75}
{"smiles": "O=C(CC12CC3CC(CC(C3)C1)C2)C(=O)NCCc1ccc(OCc2ccccc2)cc1", "note": "[Compound 24]", "% Inhibition": 87}
{"smiles": "O=C(NC12CC3CC(CC(C3)C1)C2)C(O)Cc1ccc(OCc2ccccc2)cc1", "note": "(stereo not shown) [Compound 107, N-Adamantan-1-yl-3-(4-benzyloxy-phenyl)-2-hydroxy-propionamide]", "% Inhibition": 91}
{"smiles": "Cc1ccc(S(=O)(=O)N2CCC(NC(=O)C(=O)CC34CC5CC(CC(C5)C3)C4)CC2)cc1", "note": "[Compound 19, 3-Adamantan-1-yl-2-oxo-N-[1-(toluene-4-sulfonyl)-piperidin-4-yl]-propionamide]", "% Inhibition": 99}
{"smiles": "CCCC(=O)N1CCC(NC(=O)C(O)C2CCCCC2)CC1", "note": "(stereo not shown) [Compound 116, N-(1-Butyryl-piperidin-4-yl)-2-cyclohexyl-2-hydroxy-acetamide]", "% Inhibition": 81}
{"smiles": "O=C(O)CCCCCCCCCCCNC(=O)C(O)CCc1ccc(C(F)(F)F)cc1", "note": "(stereo not shown) [Compound 163, 12-(2-Hydroxy-4-(4-(trifluoromethyl)phenyl)butanamido)dodecanoicacid]", "% Inhibition": 89}
{"smiles": "O=C(NCC12CC3CC(CC(C3)C1)C2)C(O)c1ccc(C(F)(F)F)cc1", "note": "(stereo not shown) [Compound 121, N-Adamantan-1-ylmethyl-2-hydroxy-2-(4-trifluoromethyl-phenyl)-acetamide]", "% Inhibition": 91}
{"smiles": "O=C(O)c1ccc(Oc2ccc(CCNC(=O)C(O)CCC34CC5CC(CC(C5)C3)C4)cc2)cc1", "note": "(stereo not shown) [Compound 154, 4-(4-(2-(4-Adamantan-1-yl-2-hydroxybutanamido)ethyl)phenoxy)benzoic acid]", "% Inhibition": 81}
{"smiles": "O=C(O)CCCCCCCCCCCNC(=O)C(O)CC12CC3CC(CC(C3)C1)C2", "note": "(stereo not shown) [Compound 161, 12-(3-Adamantan-1-yl-2-hydroxypropanamido)dodecanoic acid]", "% Inhibition": 90}
{"smiles": "O=C(Nc1cccc(OCc2ccccc2)c1)C(O)CCc1ccc(C(F)(F)F)cc1", "note": "(stereo not shown) [Compound 131]", "% Inhibition": 98}
{"smiles": "O=C(Cc1ccc(OCc2ccccc2)cc1)C(=O)NCC12CC3CC(CC(C3)C1)C2", "note": "[Compound 6, N-Adamantan-1-ylmethyl-3-(4-benzyloxy-phenyl)-2-oxo-propionamide]", "% Inhibition": 71}
{"smiles": "O=C(O)CCCCCCCCCCCNC(=O)C(O)c1ccc(C(F)(F)F)cc1", "note": "(stereo not shown) [Compound 159, 12-(2-Hydroxy-2-(4-(trifluoromethyl)phenyl)acetamido)dodecanoic acid]", "% Inhibition": 86}
{"smiles": "O=C(NCc1ccc(OCc2ccccc2)cc1)C(O)CC12CC3CC(CC(C3)C1)C2", "note": "(stereo not shown) [Compound 125, 3-Adamantan-1-yl-N-(4-benzyloxy-benzyl)-2-hydroxy-propionamide]", "% Inhibition": 98}
{"smiles": "Cc1ccc(S(=O)(=O)N2CCC(NC(=O)C(O)C3CCCCC3)CC2)cc1", "note": "(stereo not shown) [Compound 137, 2-Cyclohexyl-2-hydroxy-N-(1-tosylpiperidin-4-yl)acetamide]", "% Inhibition": 82}
{"system": "soluble epoxide hydrolase (sEH)", "test": "Fluorescent Assay for Mouse and Human Soluble Epoxide Hydrolase (CMNPC substrate)", "format": "biochemical", "conditions": "Concentration 50000 nM", "source_text": "as §1", "units": {"% Inhibition": "%"}}
{"smiles": "O=C(NCCc1ccc(OCc2ccccc2)cc1)C(O)Cc1ccc(C(F)(F)F)cc1", "note": "(stereo not shown) [Compound 144, N-(4-(Benzyloxy)phenethyl)-2-hydroxy-3-(4-(trifluoromethyl)phenyl)propanamide]", "% Inhibition": 66}
{"smiles": "O=C(CCc1ccc(C(F)(F)F)cc1)C(=O)Nc1ccc(OCc2ccccc2)cc1", "note": "[Compound 23]", "% Inhibition": 93}
{"smiles": "O=C(NC12CC3CC(CC(C3)C1)C2)C(=O)c1cccc(OCc2ccccc2)c1", "note": "[Compound 3, N-Adamantan-1-yl-2-(3-benzyloxy-phenyl)-2-oxo-acetamide]", "% Inhibition": 96}
{"smiles": "CCCC(=O)N1CCC(NC(=O)C(=O)c2ccc(C(F)(F)F)cc2)CC1", "note": "[Compound 14, N-(1-Butyryl-piperidin-4-yl)-2-oxo-2-(4-trifluoromethyl-phenyl)-acetamide]", "% Inhibition": 77}
{"smiles": "Cc1ccc(S(=O)(=O)N2CCC(NC(=O)C(O)c3ccc(C(F)(F)F)cc3)CC2)cc1", "note": "(stereo not shown) [Compound 108, 2-Hydroxy-N-[1-(toluene-4-sulfonyl)-piperidin-4-yl]-2-(4-trifluoromethyl-phenyl)-acetamide]", "% Inhibition": 80}
{"system": "soluble epoxide hydrolase (sEH)", "test": "Fluorescent Assay for Mouse and Human Soluble Epoxide Hydrolase (CMNPC substrate)", "format": "biochemical", "conditions": "Concentration 500000 nM", "source_text": "as §1", "units": {"% Inhibition": "%"}}
{"smiles": "O=C(Nc1ccc(-n2ccnc2)cc1)C(O)c1ccc(C(F)(F)F)cc1", "note": "(stereo not shown) [Compound 109, 2-Hydroxy-N-(4-imidazol-1-yl-phenyl)-2-(4-trifluoromethyl-phenyl)-acetamide]", "% Inhibition": 80}
